Results on one compound are retold here after patent US9999616B2 (ZENITH EPIGENETICS LTD., priority 2013, dated 2018).

Assay [1] concerns c-myc in Human AML MV4-11 cells. Briefly: Inhibition of cMYC expression (mRNA, real-time PCR) in MV4-11 cells. The assay is classed as cell-based. The settings on record: 3 h treatment, cMYC mRNA by real-time PCR. The procedure, abridged: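 MV4-11 cells in IMDM with 10% FBS were treated with increasing compound concentrations (DMSO 0.1%) for 3 h at 37 °C, in triplicate. Isolated mRNA was quantified by one-step TaqMan RT-qPCR, cMYC Ct normalized to cyclophilin, and fold expression given relative to DMSO control.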
For orientation: Real-time PCR tracks product formation cycle by cycle.

In another assay the test system is Human AML MV-4-11 cells. Briefly: Inhibition of cell proliferation in MV4-11 cells (CellTiter Aqueous One). The assay is classed as cell-based. Conditions: MV4-11, 72 h. The procedure, abridged: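 MV4-11 cells, 5×10^4 per well in IMDM with 10% FBS, were exposed to increasing compound concentrations or 0.1% DMSO for 72 h at 37 °C in triplicate. Viability was read by MTS (CellTiter Aqueous One) absorbance at 490 nm after 3-4 h. IC50 was derived from background-corrected signal relative to DMSO.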

The subject of the next assay is hIL-6 mRNA. Briefly: Inhibition of hIL-6 mRNA transcription in LPS-stimulated U937 macrophages. It is filed as cell-based, Human. Conditions: Homo sapiens, U-937, PMA-differentiated U937 cells, 1 h pretreatment, LPS 3 h, read-out: IL-6 activity. The procedure, abridged: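 PMA-differentiated U937 macrophages (60 ng/mL PMA, 3 days) pretreated 1 h with compound in 0.1% DMSO, then stimulated with 1 ug/mL E. coli LPS for 3 h at 37° C. IL-6 mRNA quantified by one-step TaqMan qRT-PCR, normalized to cyclophilin; fold expression relative to control, triplicate wells.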

In assay [2] the target is Brd4 bromodomain 1 (BRD4(1)) (Homo sapiens, UniProt O60885). Put plainly: Inhibition of tetra-acetylated histone H4 binding to Brd4 bromodomain 1, measured by FRET (HTRF). Details: to Brd4 bromodomain 1 (BRD4(1) as Measured by FRET); made in house; host or cells: E. coli BL21(DE3). Conditions: 2 h at room temperature. The protocol: Proteins were cloned and overexpressed with a N-terminal 6×His tag, then purified by nickel affinity followed by size exclusion chromatography. Briefly, E. coli BL21(DE3) cells were transformed with a recombinant expression vector encoding N-terminally Nickel affinity tagged bromodomains from Brd2, Brd3, Brd4. Cell cultures were incubated at 37° C. with shaking to the appropriate density and induced overnight with IPTG. The supernatant of lysed cells was loaded onto Ni-IDA column for purification. Eluted protein was pooled, concentrated and further purified by size exclusion chromatography. Fractions representing monomeric protein were pooled, concentrated, aliquoted, and frozen at −80° C. for use in subsequent experiments.
Binding of tetra-acetylated histone H4 and BET bromodomains was confirmed by a Homogenous Time Resolved Fluorescence Resonance Energy Transfer (HTRF®) method. […] After a 2 h incubation at room temperature, fluorescence was measured at 665 and 620 nm with a SynergyH4 plate reader (Biotek). The binding inhibitory activity was shown by a decrease in 665 nm relative to 620 nm fluorescence. IC50 values were determined from a dose response curve.
(TR-FRET usually uses a lanthanide donor and a delayed reading to cut background.)

SMILES strings stand for the structures.

In the case of `Cc1ncccc1-c1cc(-c2c(C)noc2C)cc2cn[nH]c12` [Example Compound 70], the IC50 in assay [1] was 300 to 3000 nM; in the assay on Human AML MV-4-11 cells, 300 to 3000 nM; with hIL-6 mRNA, 300 to 3000 nM; in assay [2] it was not above 300 nM.
